Experimental data taken from patent publication US8563559B2 (Rigel Pharmaceuticals, Inc., priority 2006, dated 2013).

Each compound was assayed against T1, Axl (Homo sapiens, UniProt P30530) (assay: Phospho-AKT in-cell Western assay (inhibition of Axl activity)). Details: Table 1, formula (Ia); Hela cells, Axl antibody cross-linking stimulation, phospho-Akt chemiluminescence normalized to relative cell number.
T1 construct: endogenous in cells; host or cells: HeLa
T1 sequence (P30530 26-894): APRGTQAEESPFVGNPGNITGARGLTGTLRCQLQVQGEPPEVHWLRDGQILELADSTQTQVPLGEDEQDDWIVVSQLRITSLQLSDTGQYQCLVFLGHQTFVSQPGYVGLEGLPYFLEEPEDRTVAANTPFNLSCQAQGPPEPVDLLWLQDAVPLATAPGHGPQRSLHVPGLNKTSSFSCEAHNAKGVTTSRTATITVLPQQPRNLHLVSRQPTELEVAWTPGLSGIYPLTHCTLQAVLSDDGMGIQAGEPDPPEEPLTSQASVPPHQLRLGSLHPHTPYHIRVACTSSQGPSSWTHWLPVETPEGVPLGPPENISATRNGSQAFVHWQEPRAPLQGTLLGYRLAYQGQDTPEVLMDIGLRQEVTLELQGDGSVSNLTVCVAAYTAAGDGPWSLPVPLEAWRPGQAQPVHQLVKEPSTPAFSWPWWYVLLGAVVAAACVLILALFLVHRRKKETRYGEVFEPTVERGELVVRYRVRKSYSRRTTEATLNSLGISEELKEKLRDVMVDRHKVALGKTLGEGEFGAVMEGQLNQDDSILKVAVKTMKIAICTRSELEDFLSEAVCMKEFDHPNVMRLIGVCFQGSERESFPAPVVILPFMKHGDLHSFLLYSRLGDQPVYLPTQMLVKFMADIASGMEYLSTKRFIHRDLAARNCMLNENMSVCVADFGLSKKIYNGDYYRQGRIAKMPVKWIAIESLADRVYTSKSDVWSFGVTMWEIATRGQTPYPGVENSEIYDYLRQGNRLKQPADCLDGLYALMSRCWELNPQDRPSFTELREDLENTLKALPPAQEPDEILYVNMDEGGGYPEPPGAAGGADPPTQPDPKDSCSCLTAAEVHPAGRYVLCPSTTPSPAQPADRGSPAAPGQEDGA
Assay type: cell-based
Description: The compounds of the invention were tested in the following assay for their ability to inhibit Axl activity.
Phospho-AKT in-Cell Western Assay
• Cell culture plate: 96 well assay plate (Corning 3610), white, clear bottom, tissue-culture treated. • Cells: Hela cells. • Starvation medium: For Axl stimulation: 0.5% FCS (fetal calf serum) in DMEM, plus Axl/Fc (extracellular domain of AXL fused to immunoglobulin Fc region) (R&D, 154-AL) 500 ng/mL. • For EGF (epidermal growth factor) stimulation: 0.5% FCS in DMEM (Dulbecco's modified Eagles medium). • Poly-L-Lysine 0.01% solution (the working solution): 10 μg/ml, dilute In PBS (phosphate buffered saline). • Axl antibody cross-linking: • 1st: Mouse anti-Axl (R&D, MAB154). • 2nd: Biotin-SP-conjugated AffiniPure goat anti-mouse IgG (H+L) (Jackson ImmunoResearch #115-065-003). • Fixing buffer: 4% formaldehyde in PBS. • Wash buffer: 0.1% TritonX-100 in PBS. • Quenching buffer: 3% H2O2, 0.1% Azide in wash buffer, Azide and hydrogen peroxide 1(H2O2) are added fresh. • Blocking buffer: 5% BSA in TBST (tris buffered saline plus 0.1% Tween 20). • Primary antibody: Rabbit anti-human Phospho-Akt antibody (Cell Signaling 9271): 1×250 diluted in blocking buffer. • Secondary antibody: HRP (horse radish peroxidase)-conjugated Goat anti-Rabbit secondary, stock solution: Jackson ImmunoResearch (Goat anti-Rabbit HRP, #111-035-144) 1:1 diluted in glycerol, store at −20° C. The working solution: 1×2000 dilution of stock in blocking buffer. • Chemiluminescent working solution (Pierce, 37030): SuperSignal ELISA (enzyme linked immunosorbant assay) Pico Chemiluminescent substrate. • Crystal Violet solution: Stock: 2.5% Crystal violet in methanol, filtered and kept at ambient temperature. The working solution: dilute the stock 1:20 with PBS immediately before use. • 10% SDS: working solution: 5% SDS (sodium dodecylsulfate), diluted in PBS Methods: Day 1:
A 96 well TC (tissue culture treated) plate was coated with 10 μg/mL poly-L-Lysine at 37° C. for 30 min, washed twice with PBS, and air-dried for 5 minutes before cells were added. Hela cells were seeded at 10,000 cells/well and the cells were starved in 100 μL starvation medium containing Axl/Fc for 24 hrs.
The cells were pre-treated with test compounds by adding 100 μL of 2× test compound to the starvation medium on the cells. The cells were incubated at 37° C. for 1 hr before stimulation.
The cells were stimulated by Axl-antibody cross-linking as follows: A 5×1st/2nd Axl antibody mixture was made (37.5 μg/mL 1st/100 μg/mL 2nd) in starvation medium and nutated at 4° C. with thorough mixing for 1-2 hours for clustering. The resulting mix was warmed to 37° C. 50 μL of 5×Axl 1st/2nd of antibody cluster was added to the cells and the cells were incubated at 37° C. for 5 min.
After 5 minutes stimulation, the plate was flicked to remove medium and the plate was tapped onto paper towels. Formaldehyde (4.0% in PBS, 100 μL) was added to fix the cells and the cells were incubated at ambient temperature for 20 min without shaking.
The cells were washed with a plate washer buffer to remove the formaldehyde solution. The plate was flicked to removed excess wash buffer and tapped onto paper towels. Quenching buffer (100 μL) was added to each well and the cells were incubated at ambient temperature for 20 minutes without shaking.
The cells were washed with a plate washer buffer to remove the quenching buffer. Blocking buffer (100 μL) was added and the cells were incubated at ambient temperature for at least an hour with gentle shaking.
The cells were washed with a plate washer buffer and diluted primary antibody (50 μL) was added to each well (blocking buffer was added to the negative control wells instead). The plates were incubated overnight at 4° C. with gentle shaking.
The wash buffer was removed, diluted secondary antibody (100 μL) was added, and the cells were incubated at ambient temperature for 1 hour with gentle shaking. […]

IC50 [nM] | SMILES
< 1000 | CNC(=O)[C@H]1C[C@H]2C[C@H](C2(C)C)[C@@]1(C)Nc1nc(Nc2ccc(C(=O)N3CCN(C4CCCCC4)CC3)cc2)ncc1Cl [Compound 10, (1R,2R,3S,5R)-2-(5-chloro-2-(4-(4-cyclohexylpiperazine-1-carbonyl)phenylamino)pyrimidin-4-ylamino)-N,2,6,6-tetramethylbicyclo[3.1.1]heptane-3-carboxamide]
< 1000 | CNC(=O)[C@H]1C[C@H]2C[C@H](C2(C)C)[C@@]1(C)Nc1nc(Nc2ccc(OCCNC3CCCC3)cc2)ncc1Cl [Compound 9, (1R,2R,3S,5R)-2-(5-chloro-2-(4-(2-(cyclopentylamino)ethoxy)phenylamino)pyrimidin-4-ylamino)-N,2,6,6-tetramethylbicyclo[3.1.1]heptane-3-carboxamide]
< 1000 | CNC(=O)[C@H]1C[C@H]2C[C@H](C2(C)C)[C@@]1(C)Nc1nc(Nc2ccc(N3CCN(CCO)CC3)cc2)ncc1Cl [Compound 41, (1R,2R,3S,5R)-2-(5-chloro-2-(4-(4-(2-hydroxyethyl)piperazin-1-yl)phenylamino)pyrimidin-4-ylamino)-N,2,6,6-tetramethylbicyclo[3.1.1]heptane-3-carboxamide]

More lines, now with the values behind:

SMILES | IC50 [nM]
CCN(CC)C1CCN(c2ccc(Nc3ncc(Cl)c(N[C@@]4(C)[C@@H](C(=O)NC)C[C@H]5C[C@@H]4C5(C)C)n3)cc2F)CC1 [Compound 32, (1R,2R,3S,5R)-2-(5-chloro-2-(3-fluoro-4-(4-(diethylamino)piperidin-1-yl)phenylamino)pyrimidin-4-ylamino)-N,2,6,6-tetramethylbicyclo[3.1.1]heptane-3-carboxamide] | < 1000
CCN(CC)C1CCN(c2ccc(Nc3ncc(Cl)c(N[C@@]4(C)[C@@H](C(=O)NC5CC5)C[C@H]5C[C@@H]4C5(C)C)n3)cc2F)CC1 [Compound 62, (1R,2R,3S,5R)-2-(5-chloro-2-(3-fluoro-4-(4-(diethylamino)piperidin-1-yl)phenylamino)pyrimidin-4-ylamino)-N-cyclopropyl-2,6,6-trimethylbicyclo[3.1.1]heptane-3-carboxamide] | < 1000
CNC(=O)[C@H]1C[C@H]2C[C@H](C2(C)C)[C@@]1(C)Nc1nc(Nc2ccc(Cl)c(N3CCN(C(=O)OC)CC3)c2)ncc1Cl [Compound 18, (1R,2R,3S,5R)-2-(2-(3-(4-(methoxycarbonyl)piperazin-1-yl)-4-chlorophenylamino)-5-chloropyrimidin-4-ylamino)-N,2,6,6-tetramethylbicyclo[3.1.1]heptane-3-carboxamide] | > 20000
CCN(CC)C1CCN(c2ccc(Nc3ncc(C(F)(F)F)c(N[C@@]4(C)[C@@H](C(=O)NC)C[C@H]5C[C@@H]4C5(C)C)n3)cc2F)CC1 [Compound 52, (1R,2R,3S,5R)-2-(5-trifluoromethyl-2-(3-fluoro-4-(4-(diethylamino)piperidin-1-yl)phenylamino)pyrimidin-4-ylamino)-N,2,6,6-tetramethylbicyclo[3.1.1]heptane-3-carboxamide] | < 1000
CN1CCN(c2ccc(Nc3nccc(N[C@@]4(CCO)[C@@H](C(N)=O)C[C@H]5C[C@@H]4C5(C)C)n3)cc2F)CC1 [Compound 19, (1R,2R,3S,5R)-2-(2-(3-fluoro-4-(4-methylpiperazin-1-yl)phenylamino)pyrimidin-4-ylamino)-2-(2-hydroxyethyl)-6,6-dimethylbicyclo[3.1.1]heptane-3-carboxamide] | > 20000
CNC(=O)[C@H]1C[C@H]2C[C@H](C2(C)C)[C@@]1(C)Nc1nc(Nc2ccc(N3CCN(C)CC3)c(Cl)c2)ncc1Cl [Compound 5, (1R,2R,3S,5R)-2-(5-chloro-2-(3-chloro-4-(4-methylpiperazin-1-yl)phenylamino)pyrimidin-4-ylamino)-N,2,6,6-tetramethylbicyclo[3.1.1]heptane-3-carboxamide] | < 1000

Same assay, conditions: Table 2, formula (Ib); Hela cells, Axl antibody cross-linking stimulation, phospho-Akt chemiluminescence normalized to relative cell number

IC50 [nM] | SMILES
> 20000 | CNC(=O)[C@@H]1C[C@@H]2C[C@@H](C2(C)C)[C@]1(C)Nc1nc(Nc2ccc(OCCN3CCCC3)cc2)ncc1Cl [Compound 22, (1S,2S,3R,5S)-2-(5-chloro-2-(4-(2-(pyrrolidin-1-yl)ethoxy)phenylamino)pyrimidin-4-ylamino)-N,2,6,6-tetramethylbicyclo[3.1.1]heptane-3-carboxamide]

Same assay, conditions: Table 3, formula (Ic); Hela cells, Axl antibody cross-linking stimulation, phospho-Akt chemiluminescence normalized to relative cell number

IC50 [nM] | SMILES
1000 to 10000 | CNC(=O)[C@H]1C[C@H]2C[C@H](C2(C)C)[C@@]1(C)Nc1nc(Nc2ccc3c(c2)OCCN3CCN(C)C)ncc1F [Compound 48, (1R,2R,3S,5R)-2-(5-fluoro-2-((3,4-dihydro-4-(2-(dimethylamino)ethyl)-2H-benzo[b][1,4]oxazin-7-yl)amino)pyrimidin-4-ylamino)-N,2,6,6-tetramethylbicyclo[3.1.1]heptane-3-carboxamide]
< 1000 | CNC(=O)[C@H]1C[C@H]2C[C@H](C2(C)C)[C@@]1(C)Nc1nc(Nc2ccc3c(c2)OCCN3CCN(C)C)ncc1Cl [Compound 47, (1R,2R,3S,5R)-2-(5-chloro-2-((3,4-dihydro-4-(2-(dimethylamino)ethyl)-2H-benzo[b][1,4]oxazin-7-yl)amino)pyrimidin-4-ylamino)-N,2,6,6-tetramethylbicyclo[3.1.1]heptane-3-carboxamide]
> 20000 | CNC(=O)[C@H]1C[C@H]2C[C@H](C2(C)C)[C@@]1(C)Nc1nc(Nc2ccc3c(c2)OCC(=O)N3)ncc1Cl [Compound 28, (1R,2R,3S,5R)-2-(5-chloro-2-(3-oxo-3,4-dihydro-2H-benzo[b][1,4]oxazin-7-ylamino)pyrimidin-4-ylamino)-N,2,6,6-tetramethylbicyclo[3.1.1]heptane-3-carboxamide]

Same assay, conditions: Table 4, formula (Id); Hela cells, Axl antibody cross-linking stimulation, phospho-Akt chemiluminescence normalized to relative cell number

IC50 [nM] | SMILES
1000 to 10000 | CNC(=O)[C@H]1C[C@H]2C[C@H](C2(C)C)[C@@]1(C)Nc1nc(Nc2ccc3[nH]ccc3c2)ncc1Cl [Compound 26, (1R,2R,3S,5R)-2-(2-(1H-indol-5-ylamino)-5-chloropyrimidin-4-ylamino)-N,2,6,6-tetramethylbicyclo[3.1.1]heptane-3-carboxamide]
